Laboratory results taken from PubChem BioAssay AID2060614 (Molecular Pharmacology Branch, DTP, NCI, 2025).

Test system: 598228-144-R-J1-PDC complex spheroids, viability
Assay: Anticancer human tumor 598228-144-R-J1-PDC patient-derived serous endometrial adenocarcinoma cell line growth inhibition [CLK]
Conditions: for IC50: curve of first compound; for viability, T/C: stronger effect = lower value
Procedure, shortened: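 Patient-derived tumor cells grown as complex spheroids with HUVEC endothelial cells and mesenchymal stem cells, treated with drug combinations. Concentrations descend in half-log steps from near clinical Cmax, or from 10 microM if Cmax unknown.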

[1] = second compound 0.0316 µM, first compound 0.0316 µM
[2] = second compound 0.0316 µM, first compound 0.1 µM
[3] = second compound 0.0316 µM, first compound 0.316 µM
[4] = second compound 0.0316 µM, first compound 1 µM
[5] = second compound 0.1 µM, first compound 0.0316 µM
[6] = second compound 0.1 µM, first compound 0.1 µM
[7] = second compound 0.1 µM, first compound 0.316 µM
[8] = second compound 0.1 µM, first compound 1 µM
[9] = second compound 0.316 µM, first compound 0.0316 µM
[10] = second compound 0.316 µM, first compound 0.1 µM
[11] = second compound 0.316 µM, first compound 0.316 µM
[12] = second compound 0.316 µM, first compound 1 µM
[13] = second compound 1 µM, first compound 0.0316 µM
[14] = second compound 1 µM, first compound 0.1 µM
[15] = second compound 1 µM, first compound 0.316 µM
[16] = second compound 1 µM, first compound 1 µM
[17] = second compound 3.16 µM, first compound 0.0316 µM
[18] = second compound 3.16 µM, first compound 0.1 µM
[19] = second compound 3.16 µM, first compound 0.316 µM
[20] = second compound 3.16 µM, first compound 1 µM
[21] = second compound 10 µM, first compound 0.0316 µM
[22] = second compound 10 µM, first compound 0.1 µM
[23] = second compound 10 µM, first compound 0.316 µM
[24] = second compound 10 µM, first compound 1 µM
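Note: spheroids exposed to compounds for seven days before readout.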
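Throughout, for viability, T/C: 100% = DMSO vehicle control wells.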

CC(=O)O[C@H]1C(=O)[C@@]2(C)[C@H]([C@H](OC(=O)c3ccccc3)[C@]3(O)C[C@H](OC(=O)[C@H](O)[C@@H](NC(=O)c4ccccc4)c4ccccc4)C(C)=C1C3(C)C)[C@]1(OC(C)=O)CO[C@@H]1C[C@@H]2O + CNC(=O)c1ccc(Nc2nc(OC3CCCC3)c3c(-c4ccc5nc(C)oc5c4)c[nH]c3n2)c(OC)c1
IC50 (second compound 0.0316 µM): < 31.6 nM | IC50 (second compound 0.1 µM): > 10000 nM | IC50 (second compound 0.316 µM): > 10000 nM | IC50 (second compound 1 µM): > 10000 nM | IC50 (second compound 3.16 µM): > 10000 nM | IC50 (second compound 10 µM): > 10000 nM | viability, T/C [1]: 45.6% | viability, T/C [2]: 46.2% | viability, T/C [3]: 40.3% | viability, T/C [4]: 40.9% | viability, T/C (second compound 0.0316 µM, first compound 3.16 µM): 45.2% | viability, T/C (second compound 0.0316 µM, first compound 10 µM): 50.6% | viability, T/C [5]: 70% | viability, T/C [6]: 58% | viability, T/C [7]: 64.8% | viability, T/C [8]: 66.2% | viability, T/C (second compound 0.1 µM, first compound 3.16 µM): 57.4% | viability, T/C (second compound 0.1 µM, first compound 10 µM): 67% | viability, T/C [9]: 121% | viability, T/C [10]: 123% | viability, T/C [11]: 94.9% | viability, T/C [12]: 108% | viability, T/C (second compound 0.316 µM, first compound 3.16 µM): 106% | viability, T/C (second compound 0.316 µM, first compound 10 µM): 84.1% | viability, T/C [13]: 120% | viability, T/C [14]: 102% | viability, T/C [15]: 92.5% | viability, T/C [16]: 125% | viability, T/C (second compound 1 µM, first compound 3.16 µM): 109% | viability, T/C (second compound 1 µM, first compound 10 µM): 86.8% | viability, T/C [17]: 102% | viability, T/C [18]: 96.2% | viability, T/C [19]: 103% | viability, T/C [20]: 108% | viability, T/C (second compound 3.16 µM, first compound 3.16 µM): 105% | viability, T/C (second compound 3.16 µM, first compound 10 µM): 92.1% | viability, T/C [21]: 101% | viability, T/C [22]: 97% | viability, T/C [23]: 109% | viability, T/C [24]: 103% | viability, T/C (second compound 10 µM, first compound 3.16 µM): 90.4% | viability, T/C (second compound 10 µM, first compound 10 µM): 107%

CCc1c2c(nc3ccc(O)cc13)-c1cc3c(c(=O)n1C2)COC(=O)[C@]3(O)CC + CNC(=O)c1ccc(Nc2nc(OC3CCCC3)c3c(-c4ccc5nc(C)oc5c4)c[nH]c3n2)c(OC)c1
IC50 (second compound 0.0316 µM): 51.5 nM | IC50 (second compound 0.1 µM): 56.4 nM | IC50 (second compound 0.316 µM): 100 nM | IC50 (second compound 1 µM): 61.5 nM | IC50 (second compound 3.16 µM): 54.2 nM | IC50 (second compound 10 µM): 33.2 nM | viability, T/C (second compound 0.0316 µM, first compound 0.00316 µM): 91% | viability, T/C (second compound 0.0316 µM, first compound 0.01 µM): 77.3% | viability, T/C [1]: 65.9% | viability, T/C [2]: 30.8% | viability, T/C [3]: 14.4% | viability, T/C [4]: 6.44% | viability, T/C (second compound 0.1 µM, first compound 0.00316 µM): 106% | viability, T/C (second compound 0.1 µM, first compound 0.01 µM): 84.5% | viability, T/C [5]: 65.2% | viability, T/C [6]: 38.5% | viability, T/C [7]: 16.2% | viability, T/C [8]: 14.9% | viability, T/C (second compound 0.316 µM, first compound 0.00316 µM): 124% | viability, T/C (second compound 0.316 µM, first compound 0.01 µM): 111% | viability, T/C [9]: 97% | viability, T/C [10]: 48.3% | viability, T/C [11]: 21.6% | viability, T/C [12]: 10.5% | viability, T/C (second compound 1 µM, first compound 0.00316 µM): 117% | viability, T/C (second compound 1 µM, first compound 0.01 µM): 95% | viability, T/C [13]: 73.8% | viability, T/C [14]: 33.2% | viability, T/C [15]: 16.3% | viability, T/C [16]: 10.8% | viability, T/C (second compound 3.16 µM, first compound 0.00316 µM): 108% | viability, T/C (second compound 3.16 µM, first compound 0.01 µM): 95.9% | viability, T/C [17]: 63.9% | viability, T/C [18]: 32.9% | viability, T/C [19]: 17.3% | viability, T/C [20]: 8.19% | viability, T/C (second compound 10 µM, first compound 0.00316 µM): 110% | viability, T/C (second compound 10 µM, first compound 0.01 µM): 85.9% | viability, T/C [21]: 49.3% | viability, T/C [22]: 27.5% | viability, T/C [23]: 13.8% | viability, T/C [24]: 9.24%
